Measurements published in ChEMBL document CHEMBL3045592, “Studies of O,O-dimethyl α-(2,4-dichlorophenoxyacetoxy)ethylphosphonate (HW02) as a new herbicide. 1. Synthesis and herbicidal activity of HW02 and analogues as novel inhibitors of pyruvate dehydrogenase complex” (J Agric Food Chem, 2011).

Columns and labels:
Type in all cases: functional
Digitaria sanguinalis [1] = experiment: Pre-emergence herbicidal activity against Digitaria sanguinalis (hairy crabgrass) assessed as growth inhibition at 1500 ai g/ha after 20 days by green house test
Medicago sativa [2] = experiment: Pre-emergence herbicidal activity against Medicago sativa (alfalfa) assessed as growth inhibition at 1500 ai g/ha after 20 days by green house test
[3] = system: Brassica rapa subsp. oleifera; experiment: Pre-emergence herbicidal activity against Brassica rapa subsp. oleifera Si Yue Man assessed as growth inhibition at 1500 ai g/ha after 20 days by green house test
Echinochloa crus-galli [4] = experiment: Pre-emergence herbicidal activity against Echinochloa crus-galli (barnyard grass) assessed as growth inhibition at 1500 ai g/ha after 20 days by green house test
Digitaria sanguinalis [5] = experiment: Post-emergence herbicidal activity against Digitaria sanguinalis (hairy crabgrass) assessed as growth inhibition at 1500 ai g/ha after 20 days by green house test
[6] = system: Brassica rapa subsp. oleifera; experiment: Post-emergence herbicidal activity against Brassica rapa subsp. oleifera Si Yue Man assessed as growth inhibition at 1500 ai g/ha after 20 days by green house test
Echinochloa crus-galli [7] = experiment: Post-emergence herbicidal activity against Echinochloa crus-galli (barnyard grass) assessed as growth inhibition at 1500 ai g/ha after 20 days by green house test
Medicago sativa [8] = experiment: Post-emergence herbicidal activity against Medicago sativa (alfalfa) assessed as growth inhibition at 1500 ai g/ha after 20 days by green house test
Amaranthus retroflexus [9] = experiment: Post-emergence herbicidal activity against Amaranthus retroflexus assessed as growth inhibition at 1500 ai g/ha after 20 days by green house test
Amaranthus retroflexus [10] = experiment: Pre-emergence herbicidal activity against Amaranthus retroflexus assessed as growth inhibition at 1500 ai g/ha after 20 days by green house test

SMILES	growth inhibition (GI) (Digitaria sanguinalis [1])	growth inhibition (GI) (Medicago sativa [2])	growth inhibition (GI) [3]	growth inhibition (GI) (Echinochloa crus-galli [4])	growth inhibition (GI) (Digitaria sanguinalis [5])	growth inhibition (GI) [6]	growth inhibition (GI) (Echinochloa crus-galli [7])	growth inhibition (GI) (Medicago sativa [8])	growth inhibition (GI) (Amaranthus retroflexus [9])	growth inhibition (GI) (Amaranthus retroflexus [10])
COP(=O)(OC)C(C)OC(=O)COc1cc(F)cc(F)c1 (stereo not given)	<=50%	<=50%	<=50%	<=50%	<=50%	<=50%	<=50%	<=50%	<=50%	<=50%
COP(=O)(OC)C(C)OC(=O)COc1ccccc1F (stereo not given)	<=50%	<=50%	<=50%	<=50%	<=50%	<=50%	<=50%	<=50%	<=50%	<=50%
COP(=O)(OC)C(OC(=O)COc1ccc(Cl)c(C)c1)c1cccc([N+](=O)[O-])c1 (stereo not given)	50%	75%	50%	<=50%	<=50%	<=50%	<=50%	75%	75%	75%
COP(=O)(OC)C(C)OC(=O)COc1ccc(Br)cc1Br (stereo not given)	<=50%	75%	<=50%	<=50%	<=50%	90%	<=50%	90%	90%	<=50%
COP(=O)(OC)C(C)OC(=O)COc1ccc(F)cc1 (stereo not given)	90%	75%	75%	<=50%	<=50%	50%	<=50%	50%	75%	50%
COP(=O)(OC)C(OC(=O)COc1ccc(C(F)(F)F)cc1[N+](=O)[O-])c1ccccc1 (stereo not given)	<=50%	<=50%	<=50%	<=50%	<=50%	<=50%	<=50%	<=50%	<=50%	<=50%
COP(=O)(OC)C(OC(=O)COc1ccc([N+](=O)[O-])cc1)c1cccc([N+](=O)[O-])c1 (stereo not given)	<=50%	<=50%	<=50%	<=50%	<=50%	<=50%	<=50%	<=50%	<=50%	<=50%
COP(=O)(OC)C(C)OC(=O)COc1ccc(Cl)c(C)c1 (stereo not given)	75%	75%	90%	75%	<=50%	50%	<=50%	50%	50%	75%
COP(=O)(OC)C(C)OC(=O)COc1cccc(Cl)c1Cl (stereo not given)	<=50%	<=50%	<=50%	<=50%	<=50%	<=50%	<=50%	<=50%	50%	<=50%
COP(=O)(OC)C(C)OC(=O)COc1cccc(C)c1C (stereo not given)	<=50%	75%	90%	75%	<=50%	75%	50%	50%	50%	75%
COP(=O)(OC)C(OC(=O)COc1ccc(C)cc1)c1ccccc1 (stereo not given)	<=50%	75%	75%	<=50%	<=50%	50%	<=50%	50%	50%	75%
COP(=O)(OC)C(OC(=O)COc1ccc(C(F)(F)F)cc1)c1ccccc1 (stereo not given)	<=50%	<=50%	<=50%	<=50%	<=50%	<=50%	<=50%	<=50%	<=50%	<=50%
COP(=O)(OC)C(OC(=O)COc1ccccc1[N+](=O)[O-])c1cccc([N+](=O)[O-])c1 (stereo not given)	<=50%	<=50%	<=50%	<=50%	<=50%	<=50%	<=50%	<=50%	<=50%	<=50%
COP(=O)(OC)C(OC(=O)COc1ccc(F)cc1F)c1cccc([N+](=O)[O-])c1 (stereo not given)	50%	50%	<=50%	<=50%	50%	75%	<=50%	50%	75%	<=50%
COP(=O)(OC)C(OC(=O)COc1ccc(F)cc1Cl)c1ccccc1O (stereo not given)	90%	90%	90%	50%	<=50%	90%	50%	90%	90%	90%
COP(=O)(OC)C(OC(=O)COc1ccc(F)cc1Cl)c1cccc([N+](=O)[O-])c1 (stereo not given)	90%	90%	90%	90%	50%	75%	75%	50%	90%	90%
COP(=O)(OC)C(OC(=O)COc1ccc(F)cc1Cl)c1ccccc1 (stereo not given)	90%	90%	90%	90%	50%	75%	75%	75%	90%	90%
